For experiment [1], the system named is MC38 tumor. Put plainly: MC38 dual tumor model (injected and non-injected tumor), tumor growth inhibition and survival.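 As to all read-outs here: male C57BL/6 mice carrying two subcutaneous MC38 flank tumors, with treatment given peritumorally beside the larger tumor only and both tumors sized by caliper three times per week.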 Conditions: for response of non-injected tumors: non-injected tumor (FIG. 6C); for antitumor activity on non-injected tumor compared with G4: P<0.001; for 1-T/C (%) / T/C (%): vs G4 saline; for TV, tumor volume at Day 7: Day 7 = treatment start, all groups peritumoral BIOMATERIAL 1; for survival, statistical difference from Saline: log-rank (Mantel-Cox) test; for tumor growth curves, statistical difference from Saline: unpaired t test with Welch's correction for each day, groups 4, 5, 8.
Experimental: For groups 4-10 (dual tumor model), Immunocompetent male C57BL/6 mice were inoculated SC in the right flank with 5×10^5 MC38 tumor cells (large injected tumor) and in the left flank with 1×10^5 MC38 tumor cells (small non-injected tumor).
Prior to injection, the MC38 cells were suspended in 0.1 mL DMEM media mixed with 50% Matrigel for tumor development. When the average tumor volume of the large tumor reached approximately 100 mm^3, animals were randomly grouped according to body weight and tumor volume into 10 treatment groups with 5-10 mice per group. All groups received peritumoral biomaterial injections (100 μL/mouse) near the large tumor (hereafter, the injected tumor). One hour later, groups 1, 4 and 10 were IV administered saline control (QD×5 days); groups 2, 8 and 9 were IV administered PRODRUG 1 prodrug (28.6 mg/kg Dox Eq QD×5 days; cumulative dose of 143 mg/kg Dox Eq) and group 5 was IV administered Dox HCl control (MTD; 8.1 mg/kg Q4D×3 doses; cumulative dose of 24.3 mg/kg). Tumor volumes for both tumors were measured three times weekly in two dimensions using a caliper, and the volume expressed in mm^3. 8 groups were used to assess the tumor growth inhibition, while groups 9 and 10 (PRODRUG 1, saline n=10/group) were used to determine the immune cell infiltration using flow cytometry. Groups 3, 6 and 7 (n=10) were used to test Dox+ TLR9 agonist (SL-01) and PRODRUG 1+ TLR9 agonist. The TLR9 agonist was given as an intratumoral injection in the primary tumors alone after the last PRODRUG 1 or Dox dose at 25 μg per mouse.
Eighty-five animals were enrolled into the efficacy study. When tumor volume reached an average volume of approximately 100 mm^3, animals were randomized as below using block randomization by Excel based upon their tumor size. […] 5×10^5 MC-38 cells suspended in 100 μL PBS mixed with 50% matrix gel were inoculated subcutaneously into the right flank. For Groups 4 through 10, 1×10^5MC-38 cells suspended in 100 μL PBS mixed with 50% matrix gel were inoculated subcutaneously into the left flank.
Tumor volume was measured thrice weekly in two dimensions using a caliper, and the volume was expressed in mm^3 using the formula: V=0.5 a×b^2, where a and b are the long and short diameters of the tumor, respectively. The tumor volume was then used for calculations of both T-C and T/C values. T-C was calculated with T as the median time (in days) required for the treatment group tumors to reach a predetermined size, and C as the median time (in days) for the control group tumors to reach the same size.

For experiment [2], the system named is MC38 tumor cells. Put plainly: MC38 tumor re-challenge study. The experiment is classed as in vivo, C57BL/6 mice. Conditions: 5×10^5 MC38 cells SC at left flank on Day 70; versus naïve mice; listed as BIOMATERIAL 1/PRODRUG 1. How it is done: Aside from the dual-tumor groups, this study also investigated a tumor re-implantation in mice inoculated with only one MC38 tumor. On Day 38, all animals in group G2 (Table 1)(n=8) were treated with a second cycle of BIOMATERIAL 1/PRODRUG 1-100-μL intratumoral BIOMATERIAL 1 injection followed by 5 daily doses (1 dose per day) of PRODRUG 1—this time at 11.9 mg/kg/dose Dox Eq (59.3 mg/kg/cycle Dox Eq).
In addition, mice from group G3 (Table 1) (n=5), and mice from dual tumor groups G6, G7, and G8 (n=10) were rechallenged.

Experiment [3] concerns tumor-infiltrating lymphocytes (TILs). The experiment can be described thus: flow cytometry of tumor-infiltrating immune cells in dual MC38 tumors. The experiment is classed as in vivo, C57BL/6 mice. Conditions: for % CD45+CD3+ cells versus saline: 2 weeks after treatment completion. The procedure:
In the same study, 2 groups (n=10) of mice with dual MC38 tumors were used for tumor immune cell profiling and were treated with either BIOMATERIAL 1/PRODRUG 1 TREATMENT or saline. Each group was further divided into 2 subgroups of 5 mice each. Tumor collection was performed on the first and second subgroups at 1 and 2 weeks, respectively. […] The cell percentage of each population of interest was identified (Table 6).
For tumor samples, tumor tissues were homogenized using the Miltenyi Tumor Dissociation kit. Single cell suspension from tumor samples were RBC lysed, centrifuged to pellet cells, washed with cold PBS and resuspend cell pellets in the staining buffer and store on ice. Cells were then ready for FACS antibody staining.
1. For each sample, added cells (<10×10^6 cells/tube) in the staining buffer, into an Eppendorf tube labeled with correct sample name. • Panel 1: Live-dead/CD45/CD3/CD4/CD8/CD25/PD-1 • Panel 2: Live-dead/CD45/CD3/CD4/CD25/Foxp3
2. For each tissue type (tumor), prepared two extra tubes (see below) and added cells (<10×10^6 cells/tube) in the staining buffer into these two tubes. • Tube: no-color • Tube: live-dead only*** • Tube: no-color (fix/perm) • Tube: live-dead only (fix/perm) • Note: These two tubes served as gating control for each tissue type. • *** The live-dead only tube was also used for live-dead compensation. Compensation for 8 fluorochrome-conjugated antibodies was prepared separately, using compensation beads from BD and following vendor's manual.
3. Prepared FcR blocking solution (100 μL per tube×tube numbers) by diluting FcR blocking antibody at 1/100 in staining buffer • Note: Since two Brilliant Violet dyes were used in the FACS panel, BD Horizon Brilliant Stain Buffer were added at 5 μL per 100 μL FcR blocking solution
4. Resuspended cell pellets in 100 μL FcR blocking solution and incubated at RT in dark for 3 min
5. For panel 1, added FACS antibodies to desired concentrations (2 μg/ml for each antibody). Incubated at 4° C. in dark for 30 min. For panel 2, added FACS antibodies (except foxp3) to desired concentrations (2 μg/ml for each antibody), incubated at 4° C. in dark for 30 min, then fixated/permeabilized the cells at 4° C. for 40-50 min, and added foxp3 antibody to desired concentrations (2 μg/ml) at 4° C. in dark for 40 min.
6. Added 1 ml staining buffer, centrifuged at 350 g for 4 min at 4° C. to wash and pellet cells
7. Resuspended cells in “Tube: no color” with 500 μL staining buffer (no live-dead added)
8. Resuspended cells in all other tubes with 500 μL staining buffer with 1 μg/ml live-dead
9. Cells were ready for FACS analysis and were subjected to analysis by the Attune Nxt Flow Cytomter (ThermoFisher)
For Group 9 and Group 10, 5 and 5 mice were sacrificed at 1 and 2 weeks respectively after dosing completion. Tumors were collected for FACS.

For experiment [4], the system named is MC38 tumor. The experiment can be described thus: MC38 subcutaneous syngeneic single tumor model, tumor growth inhibition. The class given is in vivo, C57BL/6 mice.
Experiment [5] concerns bacteria. The experiment can be described thus: activity against bacteria measured by microcalorimetry. The class given is cell-based. Conditions: tested up to 64 μg/ml (32 μM). The source says:
Example A7C can be synthesized using a protocol analogous to Example A7B.

Where [6] appears, read: dual tumor mice, injected tumor.
Where [7] appears, read: dual tumor mice, non-injected tumor.
[8] abbreviates: injected tumor, dual tumor mice, D21.
Where [9] appears, read: injected tumor, dual tumor mice.
Where [10] appears, read: non-injected tumor, dual tumor mice, D24.
[11] abbreviates: non-injected tumor, dual tumor mice.
Setting [12] is: injected tumor, single tumor mice, D21, vs G1 saline.

Entries after “also recorded” stand apart in the source; their conditions may differ.

`COc1cccc2c1C(=O)c1c(O)c3c(c(O)c1C2=O)C[C@@](O)(C(=O)CO)C[C@@H]3O[C@H]1C[C@H](N)[C@H](O)[C@H](C)O1` [Dox, doxorubicin, reference compound]: the “antitumor activity on injected tumor compared with control group G4” value in experiment [1] (setting [6]) was “significant antitumor activity”. In experiment [1] (dual tumor mice), the “response of non-injected tumors” value is reported as “progressive growth” and the “survival, statistical difference from Saline” value is listed as “not significantly different”. In addition, the “antitumor activity on non-injected tumor compared with G4” value in experiment [1] (setting [7]) is given as “significant antitumor activity”. Besides, in experiment [1] (setting [8]), the “1-T/C (%)” value was 34% and the “T/C (%)” value came out at 66%. In experiment [1] (setting [9]), the “TV, tumor volume at Day 7” value was determined as 93 ± 8.5 mm^3 and the “TV, tumor volume at Day 21” value was 810 ± 196.4 mm^3. For the same compound, in experiment [1] (setting [10]), the “1-T/C (%)” value is given as 66% and the “T/C (%)” value was 34%. Moreover, in experiment [1] (setting [11]), the “TV, tumor volume at Day 12” value turned out to be 67 ± 18.8 mm^3 and the “TV, tumor volume at Day 24” value worked out at 93 ± 19.2 mm^3. Besides, the “tumor growth curves, statistical difference from Saline” value in experiment [1] was “not significantly different”.

With `COc1cccc2c1C(=O)c1c(O)c3c(c(O)c1C2=O)C[C@@](O)(C(=O)CO)C[C@@H]3O[C@H]1CC(NC(=O)O[C@@H]2/C=C/CC[C@](C)(C(=O)NCC(=O)O)CC2)[C@H](O)C(C)O1` (stereo partly shown) [PRODRUG 1], in experiment [1] (setting [6]), the “antitumor activity on injected tumor compared with control group G4” value is reported as “significant antitumor activity”. Also, the “antitumor response / tumor growth inhibition compared with conventional Dox treatment” value in experiment [1] (dual tumor mice, injected tumor, p<0.05, listed as BIOMATERIAL 1/PRODRUG 1) is “significantly improved antitumor response; also recorded: improved tumor growth inhibition”. In experiment [1] (dual tumor mice), the “response of non-injected tumors” value was “sustained anti-tumor responses” and the “survival, statistical difference from Saline” value was “significantly different”. Besides, the “antitumor activity on non-injected tumor compared with G4” value in experiment [1] (setting [7]) is “significant antitumor activity”. Also, the “overall survival compared with conventional Dox treatment” value in experiment [1] (dual tumor mice, p<0.001, listed as BIOMATERIAL 1/PRODRUG 1) is on record as “significantly improved”. In experiment [1] (setting [8]), the “1-T/C (%)” value worked out at 75% and the “T/C (%)” value turned out to be 25%. For the same compound, in experiment [1] (setting [9]), the “TV, tumor volume at Day 7” value is on record as 93 ± 5.6 mm^3 and the “TV, tumor volume at Day 21” value came out at 322 ± 45.9 mm^3. In addition, in experiment [1] (setting [10]), the “1-T/C (%)” value was 70% and the “T/C (%)” value is 30%. Also, in experiment [1] (setting [11]), the “TV, tumor volume at Day 12” value amounted to 42 ± 3.8 mm^3 and the “TV, tumor volume at Day 24” value is recorded as 53 ± 5.2 mm^3. Moreover, in experiment [1], the “tumor growth curves, statistical difference from Saline” value was “significantly different”. For the same compound, the “tumor growth after re-challenge with MC38 cells” value in experiment [2] is “suppressed; also recorded: sustained anti-tumor response”. The “immune cell profile versus saline group” value in experiment [3] (1 week after completion of treatment) is given as “no differences”. Also, in experiment [3] (injected and non-injected tumors, at 2 weeks, not after 1 week, listed as BIOMATERIAL 1/PRODRUG 1), the “total number of TILs” value is recorded as “increased the total number of TILs”. The “PD-1 expression in CD8+ cells versus saline” value in experiment [3] (injected or non-injected tumors) is “no difference”. Moreover, in experiment [3] (injected tumor, 2 weeks), the “percentage of CD4+ cells versus saline” value is on record as “significantly higher” and the “percentage of CD8+ cells versus saline” value is listed as “significantly higher”. In addition, in experiment [3] (injected tumors, 2 weeks), the “percentage of PD-1+CD4+ T cells versus saline” value was “higher percentage”. Further, in experiment [3] (injected tumors), the “% CD45+CD3+ cells versus saline” value is reported as “increased”. Also, the “percentage of FoxP3+ cells versus saline” value in experiment [3] (injected tumors, 2 weeks, no statistical significance) is on record as “lower”. Also, the “CD4+ cell percentage versus saline” value in experiment [3] (non-injected tumor, 2 weeks) is reported as “significantly higher”. In experiment [3] (non-injected tumors, 2 weeks), the “CD4+CD25+ FoxP3+ cells (Tregs)” value is on record as “no CD4+CD25+ FoxP3+ cells observed” and the “difference in PD-1+CD4+ T cells versus saline” value was “not observed”. Moreover, the “% CD45+CD3+ cells versus saline” value in experiment [3] (non-injected tumors) is “increased”. Moreover, in experiment [3] (non-injected tumors, 2 weeks, no statistical significance), the “cell percentage of CD8+ cells versus saline” value is “appeared higher”. Also, in experiment [4] (MC38 model), the complete remission is listed as 10 % of mice treated. Also, in experiment [4] (setting [12]), the “1-T/C (%)” value was 62% and the “T/C (%)” value is listed as 38%. The “TV, tumor volume at Day 7” value in experiment [4] (injected tumor, single tumor mice, Day 7 = treatment start, all groups peritumoral BIOMATERIAL 1) is on record as 94 ± 6.3 mm^3. Moreover, the “TV, tumor volume at Day 21” value in experiment [4] (injected tumor, single tumor mice, Day 21, all groups peritumoral BIOMATERIAL 1) is given as 393 ± 100.5 mm^3. In addition, the “antitumor activity compared with control group G1” value in experiment [4] (single tumor mice, P<0.001) is recorded as “significant antitumor activity”.

For the compound `CC(C)CC(C(=O)N[C@H]1C(=O)N[C@@H](CC(N)=O)C(=O)N[C@H]2C(=O)N[C@H]3C(=O)N[C@H](C(=O)N[C@H](C(=O)O)c4cc(O)cc(O)c4-c4cc3ccc4O)[C@H](O)c3ccc(c(Cl)c3)Oc3cc2cc(c3O[C@@H]2O[C@H](CO)[C@@H](O)[C@H](O)[C@H]2O[C@H]2C[C@](C)(NC(=O)O[C@@H]3/C=C/CC[C@](C)(C(=O)NCC(=O)O)CC3)[C@H](O)[C@H](C)O2)Oc2ccc(cc2Cl)[C@H]1O)N(C)C(=O)O[C@@H]1/C=C/CC[C@](C)(C(=O)NCC(=O)O)CC1` (stereo partly shown) [Vanco-Bis-TCO-Glycine], the activity against bacteria result in experiment [5] is listed as “no activity”.
